Earlier results in US20090221522A1, “METHODS TO CORRECT GENE SET EXPRESSION PROFILES TO DRUG SENSITIVITY” (The Johns Hopkins University, priority 2008, published 2009).

Tested on: pancreatic cancer
Conditions: cited from earlier work

Q: Which “patients who benefit from this therapy” value (first-line) does the source give for `Nc1ccn([C@@H]2O[C@H](CO)[C@@H](O)C2(F)F)c(=O)n1` [gemcitabine] here?
A: ~20%

Q: And the response rate (pancreatic cancer patients)?
A: less than 20%
